{"source": "patent US12698474B2", "about": "“B-cell cultivation method” (priority 2017, dated 2026)", "test_system": "(single deposited) (rabbit) B-cells", "assay": "Co-cultivation of single deposited B-cells with EL-4 B5 feeder cells, quantification of IgG in supernatant by ELISA", "type": "cell-based", "procedure": "Generally, the 96-well multi well plate in which the co-cultivation was performed was centrifuged after seven days of co-cultivation at 300×g for 5 min. 150 μl supernatant was removed and diluted at a ratio of 2:1 with PBS in a second 96-well multi well plate. The antibody was used at a concentration of 50 ng/ml. If the OD was or exceeded 1 after an incubation time of 5 min. a dilution series of from 0.8 to 108 ng/ml IgG was tested.\nSpecifically, a mixture of 0.5 μg/ml of biotinylated mouse anti-rabbit IgG antibody (Sigma-Aldrich) and 0.35 μg/ml anti-rabbit IgG HRP conjugate (Sigma-Aldrich) was transferred to 384 well streptavidin coated microtiter plates (MicroCoat Biotechnologie GmbH). Dilutions of B-cell supernatants in PBS supplemented with 0.5% BSA and 0.05% Tween®-20 were added and incubated for 90 min at RT. After repeated washing (6×) with PBST (phosphate buffered saline with 0.2% Tween®-20) buffer the plates were developed with BM Blue® HRP substrate solution and color formation was measured by absorbance at 370 nm. A commercial rabbit IgG (Sigma-Aldrich) was used as a calibration standard.\nSingle cell sorted B-cells were cultured in 96-well plates with 200 μl/well EL-4 B5 medium with Pansorbin Cells (SAC) (Calbiochem (Merck), Darmstadt, Deutschland), EL-4 B5 cells (5×10^4/well) and rabbit thymocyte supernatant (TSN) or cytokine mix (CM) with PMA, respectively, for 7 days at 37° C. in an atmosphere of 5% CO2 in the incubator. B-cell culture supernatants were removed for screening and the cells harvested immediately for variable region gene cloning or frozen at −80° C. in 100 μl RLT buffer (Qiagen, Hilden, Germany).", "key": {"[1]": {"conditions": "PMA alone, in the absence of cytokines and interleukins"}}}
{"smiles": "CCCCCCCCCCCCCC(=O)O[C@@H]1[C@@H](C)[C@@]2(O)[C@@H](C=C(CO)C[C@]3(O)C(=O)C(C)=C[C@@H]23)[C@@H]2C(C)(C)[C@]12OC(C)=O", "note": "[PMA, (1aR,1bS,4aR,7aS,7bS,8R,9R,9aS)-9a-(acetyloxy)-4a,7b-dihydroxy-3-(hydroxymethyl)-1,1,6,8-tetramethyl-5-oxo-1a,1b,4,4a,5,7a,7b,8,9,9a-decahydro-H-cyclopropa[3,4]benzo[1,2-e]azulen-9-yl myristate]", "values": [{"measurement": "IgG+ wells [% total]", "setting": "PMA 0.002 ng/ml, 0.1×CM", "result": "+"}, {"measurement": "IgG+ wells [% total]", "setting": "PMA 0.011 ng/ml, 0.1×CM", "result": "+"}, {"measurement": "productivity IgG+ [μg/ml]", "setting": "PMA 0.011 ng/ml, 0.1×CM", "result": "+"}, {"measurement": "IgG+ wells [% total]", "setting": "PMA 0.054 ng/ml, 0.1×CM", "result": "++++"}, {"measurement": "productivity IgG+ [μg/ml]", "setting": "PMA 0.054 ng/ml, 0.1×CM", "result": "+++"}, {"measurement": "Average IgG productivity", "setting": "PMA 0.095 ng/ml, CM 1x", "result": 1.390, "unit": "µg/mL"}, {"measurement": "Number of IgG positive wells [% of total]", "setting": "PMA 0.095 ng/ml, CM 1x", "result": "38.1 % of total"}, {"measurement": "productivity IgG+ [μg/ml]", "setting": "PMA 0.127 ng/ml, 0.032×CM", "result": "+"}, {"measurement": "IgG+ wells [% total]", "setting": "PMA 0.127 ng/ml, 0.1×CM", "result": "++"}, {"measurement": "productivity IgG+ [μg/ml]", "setting": "PMA 0.127 ng/ml, 0.1×CM", "result": "++++"}, {"measurement": "IgG+ wells [% total]", "setting": "PMA 0.225 ng/ml, 0.1×CM", "result": "+++++"}, {"measurement": "productivity IgG+ [μg/ml]", "setting": "PMA 0.225 ng/ml, 0.1×CM", "result": "+++++"}, {"measurement": "IgG+ wells [% total]", "setting": "PMA 0.3 ng/ml, 0.032×CM", "result": "++++"}, {"measurement": "productivity IgG+ [μg/ml]", "setting": "PMA 0.3 ng/ml, 0.032×CM", "result": "+++"}, {"measurement": "IgG+ wells [% total]", "setting": "PMA 0.3 ng/ml, 0.1×CM", "result": "+++++"}, {"measurement": "productivity IgG+ [μg/ml]", "setting": "PMA 0.3 ng/ml, 0.1×CM", "result": "+++++"}, {"measurement": "Average IgG productivity", "setting": "PMA 0.3 ng/ml, CM 0.01x", "result": 1.931, "unit": "µg/mL"}, {"measurement": "Number of IgG positive wells [% of total]", "setting": "PMA 0.3 ng/ml, CM 0.01x", "result": "69.0 % of total"}, {"measurement": "Average IgG productivity", "setting": "PMA 0.3 ng/ml, CM 0.032x", "result": 3.476, "unit": "µg/mL"}, {"measurement": "Number of IgG positive wells [% of total]", "setting": "PMA 0.3 ng/ml, CM 0.032x", "result": "70.2 % of total"}, {"measurement": "Average IgG productivity", "setting": "PMA 0.3 ng/ml, CM 0.1x", "result": 4.450, "unit": "µg/mL"}, {"measurement": "Number of IgG positive wells [% of total]", "setting": "PMA 0.3 ng/ml, CM 0.1x", "result": "67.9 % of total"}, {"measurement": "Average IgG productivity", "setting": "PMA 0.3 ng/ml, CM 0.32x", "result": 2.662, "unit": "µg/mL"}, {"measurement": "Number of IgG positive wells [% of total]", "setting": "PMA 0.3 ng/ml, CM 0.32x", "result": "57.1 % of total"}, {"measurement": "Average IgG productivity", "setting": "PMA 0.3 ng/ml, CM 1x", "result": 0.720, "unit": "µg/mL"}, {"measurement": "Number of IgG positive wells [% of total]", "setting": "PMA 0.3 ng/ml, CM 1x", "result": "17.9 % of total"}, {"measurement": "IgG+ wells [% total]", "setting": "PMA 0.534 ng/ml, 0.032×CM", "result": "++"}, {"measurement": "productivity IgG+ [μg/ml]", "setting": "PMA 0.534 ng/ml, 0.032×CM", "result": "+++"}, {"measurement": "IgG+ wells [% total]", "setting": "PMA 0.534 ng/ml, 0.1×CM", "result": "+++++"}, {"measurement": "productivity IgG+ [μg/ml]", "setting": "PMA 0.534 ng/ml, 0.1×CM", "result": "+++"}, {"measurement": "IgG+ wells [% total]", "setting": "PMA 0.712 ng/ml, 0.032×CM", "result": "++"}, {"measurement": "productivity IgG+ [μg/ml]", "setting": "PMA 0.712 ng/ml, 0.032×CM", "result": "+++"}, {"measurement": "IgG+ wells [% total]", "setting": "PMA 0.712 ng/ml, 0.1×CM", "result": "+++"}, {"measurement": "productivity IgG+ [μg/ml]", "setting": "PMA 0.712 ng/ml, 0.1×CM", "result": "++"}, {"measurement": "IgG+ wells [% total]", "setting": "PMA 0.949 ng/ml, 0.032×CM", "result": "++++"}, {"measurement": "productivity IgG+ [μg/ml]", "setting": "PMA 0.949 ng/ml, 0.032×CM", "result": "+++++"}, {"measurement": "Average IgG productivity", "setting": "PMA 0.95 ng/ml, CM 0x", "result": 1.650, "unit": "µg/mL"}, {"measurement": "Number of IgG positive wells [% of total]", "setting": "PMA 0.95 ng/ml, CM 0x", "result": "28.6 % of total"}, {"measurement": "Average IgG productivity", "setting": "PMA 0.95 ng/ml, CM 0.01x", "result": 4.235, "unit": "µg/mL"}, {"measurement": "Number of IgG positive wells [% of total]", "setting": "PMA 0.95 ng/ml, CM 0.01x", "result": "69.0 % of total"}, {"measurement": "Average IgG productivity", "setting": "PMA 0.95 ng/ml, CM 0.032x", "result": 5.340, "unit": "µg/mL"}, {"measurement": "Number of IgG positive wells [% of total]", "setting": "PMA 0.95 ng/ml, CM 0.032x", "result": "67.9 % of total"}, {"measurement": "Average IgG productivity", "setting": "PMA 0.95 ng/ml, CM 0.1x", "result": 1.623, "unit": "µg/mL"}, {"measurement": "Number of IgG positive wells [% of total]", "setting": "PMA 0.95 ng/ml, CM 0.1x", "result": "50.0 % of total"}, {"measurement": "Average IgG productivity", "setting": "PMA 0.95 ng/ml, CM 0.32x", "result": 0.134, "unit": "µg/mL"}, {"measurement": "Number of IgG positive wells [% of total]", "setting": "PMA 0.95 ng/ml, CM 0.32x", "result": "23.8 % of total"}, {"measurement": "Average IgG productivity", "setting": "PMA 0.95 ng/ml, CM 1x", "result": 0.100, "unit": "µg/mL"}, {"measurement": "Number of IgG positive wells [% of total]", "setting": "PMA 0.95 ng/ml, CM 1x", "result": "8.3 % of total"}, {"measurement": "IgG+ wells [% total]", "setting": "PMA 0.95 ng/ml, without CM", "result": "+"}, {"measurement": "productivity IgG+ [μg/ml]", "setting": "PMA 0.95 ng/ml, without CM", "result": "+"}, {"measurement": "IgG+ wells [% total]", "setting": "PMA 1.266 ng/ml, 0.032×CM", "result": "+++"}, {"measurement": "productivity IgG+ [μg/ml]", "setting": "PMA 1.266 ng/ml, 0.032×CM", "result": "+++++"}, {"measurement": "IgG+ wells [% total]", "setting": "PMA 1.688 ng/ml, 0.032×CM", "result": "+++++"}, {"measurement": "productivity IgG+ [μg/ml]", "setting": "PMA 1.688 ng/ml, 0.032×CM", "result": "+++++"}, {"measurement": "IgG+ wells [% total]", "setting": "PMA 1.688 ng/ml, without CM", "result": "++"}, {"measurement": "productivity IgG+ [μg/ml]", "setting": "PMA 1.688 ng/ml, without CM", "result": "+++"}, {"measurement": "IgG+ wells [% total]", "setting": "PMA 2.25 ng/ml, 0.032×CM", "result": "++++"}, {"measurement": "productivity IgG+ [μg/ml]", "setting": "PMA 2.25 ng/ml, 0.032×CM", "result": "++++"}, {"measurement": "IgG+ wells [% total]", "setting": "PMA 2.251 ng/ml, without CM", "result": "+++++"}, {"measurement": "productivity IgG+ [μg/ml]", "setting": "PMA 2.251 ng/ml, without CM", "result": "+++++"}, {"measurement": "Average IgG productivity", "setting": "PMA 3 ng/ml, CM 0.01x", "result": 3.893, "unit": "µg/mL"}, {"measurement": "Number of IgG positive wells [% of total]", "setting": "PMA 3 ng/ml, CM 0.01x", "result": "69.0 % of total"}, {"measurement": "Average IgG productivity", "setting": "PMA 3 ng/ml, CM 0.032x", "result": 3.480, "unit": "µg/mL"}, {"measurement": "Number of IgG positive wells [% of total]", "setting": "PMA 3 ng/ml, CM 0.032x", "result": "72.6 % of total"}, {"measurement": "Average IgG productivity", "setting": "PMA 3 ng/ml, CM 0.1x", "result": 0.363, "unit": "µg/mL"}, {"measurement": "Number of IgG positive wells [% of total]", "setting": "PMA 3 ng/ml, CM 0.1x", "result": "35.7 % of total"}, {"measurement": "Average IgG productivity", "setting": "PMA 3 ng/ml, CM 0.32x", "result": 0.125, "unit": "µg/mL"}, {"measurement": "Number of IgG positive wells [% of total]", "setting": "PMA 3 ng/ml, CM 0.32x", "result": "13.1 % of total"}, {"measurement": "Average IgG productivity", "setting": "PMA 3 ng/ml, CM 1x", "result": 0.351, "unit": "µg/mL"}, {"measurement": "Number of IgG positive wells [% of total]", "setting": "PMA 3 ng/ml, CM 1x", "result": "13.1 % of total"}, {"measurement": "IgG+ wells [% total]", "setting": "PMA 3.999 ng/ml, without CM", "result": "+++"}, {"measurement": "productivity IgG+ [μg/ml]", "setting": "PMA 3.999 ng/ml, without CM", "result": "+++"}, {"measurement": "IgG+ wells [% total]", "setting": "PMA 5.331 ng/ml, without CM", "result": "++++"}, {"measurement": "productivity IgG+ [μg/ml]", "setting": "PMA 5.331 ng/ml, without CM", "result": "+++++"}, {"measurement": "IgG+ wells [% total]", "setting": "PMA 7.106 ng/ml, without CM", "result": "+++++"}, {"measurement": "productivity IgG+ [μg/ml]", "setting": "PMA 7.106 ng/ml, without CM", "result": "++"}, {"measurement": "numbers of IgG positive wells", "setting": "[1]", "result": "comparable"}, {"measurement": "productivity", "setting": "[1]", "result": "increased"}]}
